Experimental data published in patent US20190062749A1, “SIRNA, PHARMACEUTICAL COMPOSITION AND CONJUGATE WHICH CONTAIN SIRNA, AND USES THEREOF” (priority 2015, published 2019).
d = 2'-deoxy (DNA); m = 2'-O-methyl; r = 2'-OH (RNA); f = 2'-fluoro

Legend:
HBsAg [1] = details: 0.1 mg/kg gastric gavage daily for 7 days
Method: The drug dosages for all animals were calculated based on the body weight and the administration volume was 10 ml/kg. The PBS group and each of the RBP131/X2M2 groups were administered with a single dose via tail vein, and the entecavir group was administered by gastric gavage daily for 7 consecutive days, i.e., once a day from day 0 to day 6. Half of the animals was sacrificed in batches at day 7 and day 28, respectively. The expression levels of HBsAg in liver tissue were detected by the detection method as described above.

[2] = prior application CN102140461B; cited from earlier work
HBV gene = details: prior application CN102140461B; cited from earlier work
[3] = prior application CN102140461B; cited from earlier work; remark: listed apart in the source
[4] = Stability of siRNAs in human plasma in vitro (gel, ratio of the longest fragments RL); format: in vitro ADME; details: 50% human plasma
Method: The siRNAs (20 μM, 10 μl) obtained in Preparation Example 1 were incubated with 50% human plasma (HP) at 37° C. in vitro for a certain time and samples were taken therefrom. Specifically, 10 μl samples were taken at 0, 2, 4, 6, 8, 24 and 48 hours respectively and immediately snap frozen in liquid nitrogen, followed by cryopreservation at −80° C. for future use. 20 wt % non-denaturing polyacrylamide gel was formulated, and 10 μl 5-fold diluted above samples (dilution solution: 1×PBS buffer at pH 7.4) and 4 μl loading buffer (20 mM EDTA, 36 wt % glycerol, 0.06 wt % bromophenol blue) were mixed and then loaded into the gel to perform electrophoresis for about 60 minutes under 80 mA constant current. After electrophoresis finished, the gel was stained with 1× Sybr Gold dye (Invitrogen, Cat. 11494) for 15 minutes followed by imaging.
The ratio of the longest fragments remained after incubating the test siRNAs and control siRNAs with human plasma to the longest fragments of the siRNAs without the treatment of human plasma (i.e., the markers shown in FIG. 3) (also referred to as ratio of the longest fragments, RL) is calculated by reading the grayscale values quantitatively.

rat primary hepatocytes = assay: MTT cytotoxicity assay in rat primary hepatocytes; format: cell-based; details: 500 nM concentration
HBV mRNA = assay: Inhibition of HBV mRNA expression in transfected HepG2.2.15 cells (fluorescent qPCR); format: cell-based; details: 50 nM, 10 nM and 1 nM siRNA, 48 hours after transfection
Method: HepG2.2.15 cells were purchased from ATCC, cultured with DMEM complete medium (Gibco) containing 10% fetal bovine serum (FBS, Gibco), 2 mM L-glutamine (Gibco) and 380 μg/ml G418 in an incubator containing 5% CO2/95% air at 37° C.
When using the siRNAs against the X gene region of HBV or the non-specific siRNAs as negative controls synthesized in Preparation Example 1 (all of which were synthesized by Suzhou Ribo Life Science Co., Ltd.) to transfect cells, Lipofectamine™ 2000 (Invitrogen) was used as a transfection reagent. The specific procedures thereof may refer to the instruction provided by the manufacturer. […]
The final concentrations of the siRNAs were 50 nM, 10 nM and 1 nM, respectively. The expression levels of HBV mRNA in the above harvested cells were measured by real-time fluorescent qPCR 48 hours after transfection. Specifically, RNeasy Mini Kit (QIAGEN Co., Cat. 74106) was used to extract total RNAs according to the instructions thereof, and the extracted total RNAs were reverse transcribed into cDNAs, and then the inhibitory efficiency of the siRNAs on the expression of HBV mRNA in HepG2.2.15 cells was detected by fluorescent qPCR method. […]
In this fluorescent qPCR method, the inhibitory activity of siRNA was expressed as the remaining expression of HBV gene, and was calculated as follows: […]

HepG2.2.15 cells = assay: MTT cytotoxicity assay in HepG2.2.15 cells; format: cell-based; details: 500 nM concentration
HBsAg [5] = details: 25 ng/g subcutaneously twice a week (day 0, 4, 7, 11, 14), day 7 to 28
Method: The drug dosages for all animals were calculated based on the body weight and the administration volume was 10 ml/kg. […] The blood was taken from mouse orbital venous plexus before administration and at day 7, 14, 21, and 28 after administration, and serum HBsAg levels were measured for each time point.
The volume of the blood taken out from the orbit was about 0.5 ml each time, and the volume of the serum was no less than 200 μl after centrifugation. HBsAg CLIA kit (Autobio, CL0310) was used to detect the expression levels of HBsAg in serum. The remaining expression of HBsAg was calculated as follows:
The remaining expression of HBsAg=(the content of HBsAg in the test group/the content of HBsAg in the PBS control group)×100%, wherein the content of HBsAg was expressed in nanograms of HBsAg per gram of liver tissue proteins.

Molecule: C=C1[C@H](CO)[C@@H](O)C[C@@H]1n1cnc2c(=O)[nH]c(N)nc21 [ETV, entecavir]
- inhibitory effect on the expression of HBsAg in the liver (in words) (HBsAg [1]): no inhibitory effect

Molecule: CA2: alternating modifications; sense CmCUmUGmAGmGCmAUmACmUUmCAmAAmdTdT, antisense UmUUmGAmAGmUAmUGmCCmUCmAAmGGmdTdT (sense CCUUGAGGCAUACUUCAAATT; antisense UUUGAAGUAUGCCUCAAGGTT; sugars from the 5' end mrmrmrmrmrmrmrmrmrmdd, backbone not given here) [reference compound]
- cytotoxicity compared to unmodified siRNA CA1 [2]: higher cytotoxicity
- activity at cell level compared to unmodified siRNA CA1 (HBV gene): poorer activity at cell level
- stability in blood [3]: fails to reach a stable state in the blood
- RL (ratio of the longest fragments) 0 h ([4]; 37° C., 0 h): 100.0%
- RL (ratio of the longest fragments) 2 h ([4]; 37° C., 2 h): 86.9%
- RL (ratio of the longest fragments) 4 h ([4]; 37° C., 4 h): 76.5%
- RL (ratio of the longest fragments) 6 h ([4]; 37° C., 6 h): 68.8%
- RL (ratio of the longest fragments) 8 h ([4]; 37° C., 8 h): 67.7%
- RL (ratio of the longest fragments) 24 h ([4]; 37° C., 24 h): 48.7%
- RL (ratio of the longest fragments) 48 h ([4]; 37° C.): 52.0%
- plasma stability (in words) ([4]; up to 48 h): improved but is still not satisfactory

Molecule: X2M2: siRNA against HBV X gene; sense CmCmUmUmGAGGCmAUmACmUmUmCmAAA-dTdT, antisense UfUmUfGAAGUfAUGCCUfCAAGG-dTdT; covers S++, S−−, S+−, S−+ (sense CCUUGAGGCAUACUUCAAATT; antisense UUUGAAGUAUGCCUCAAGGTT; sense: DNA at T, 2'-O-methyl at CU, RNA at AG, backbone not given here; antisense: sugars from the 5' end fmfrrrrfrrrrrfrrrrrdd, backbone not given here; phosphorothioate variants at dT overhangs exist)
- cytotoxicity by MTT assay (rat primary hepatocytes): no cytotoxicity was observed
- inhibitory activity on HBV mRNA expression in HepG2.2.15 cells (FIG. 2, in words) (HBV mRNA): excellent activity at cell level
- RL (ratio of the longest fragments) 48 h ([4]; 37° C.): ≥ 90%
- band position / full-length state on gel (FIG. 3) ([4]; up to 48 h): maintain a full-length state all the time
- plasma stability (in words) ([4]; up to 48 h): more excellent plasma stability than siRNA A4
- cytotoxicity by MTT assay (HepG2.2.15 cells): no cytotoxicity was observed

Molecule: interferon [IFN]
- inhibitory effect on the expression of HBsAg in serum (in words) (HBsAg [5]): no inhibitory effect
